Reference: patent US4020111A, “Propynyloxy alkyl arene insecticides” (priority 1975, dated 1977)

What was measured:
mice [1] = test: extension of Secobarbital sleeping time by synergists; assay type: in vivo, Swiss albino white male mice; conditions: Secobarbital 37 mg/K; for Relative Sleeping Time: treated/control
Protocol: (§1) The selectivity of the synergist compounds of this invention is illustrated by the results of sleeping-time extension tests and of acute toxicity tests on Swiss albino white male mice.
(§2) The effect of various synergist compounds on sleeping time of sodium secobarbital [Secobarbital] and of 3,3-diethyl-5-methyl-2,4-dioxypiperidine [Noludar] was determined by administering the drug, with and without synergist, to approximately 38-day old male mice weighing from 25 to 30 grams. Synergists were administered in each of two doses, 74.0 mg/kg (dilution being 2.0 mg/0.1 ml corn oil), and 110.0 mg/kg (dilution 3.0 mg/0.1 ml oil). Secobarbital was administered at a dose of 37.0 mg/kg (dilution 1.0 mg/0.1 ml water). Noludar was administered at a dose of 110.0 mg/kg (dilution 3.0 mg/0.1 ml water). The synergist was administered one hour prior to administration of the Secobarbital or Noludar. Secobarbital and Noludar sleeping times were obtained for both the control (drug only) and the treated (synergist plus drug) mice by noting the time lapse between the administration of the drug and the recovery of the righting reflex, i.e. when the animal regains conciousness and can walk up an inclined wooden tray with coordination. The relative sleeping time (R.S.) was noted. The R.S. is the extended sleeping time in the treated mice (synergist plus drug) divided by the sleeping time in the control mice (drug only). The mean sleeping time for the treated mice and the R.S. are shown on Table XXXXIV for various synergist compounds.

mice [2] = test: synergism of acute toxicity of Dimetilan, GS 13005, Secobarbital and Methadone (intraperitoneal); assay type: in vivo, Swiss albino white male mice; conditions: for number of mice dead: 48 hours, of eight mice
Protocol: The synergism of the acute toxicity of Dimetilan by various synergists was determined by tests on Swiss albino, white male mice aged 5 to 6 weeks and weighing 23 to 27 grams. The synergists and insecticides were dissolved in corn oil and the drugs were dissolved in distilled water. All compounds were administered intraperitoneally by injection in the lower quadrent of the abdomen. The synergist was administered in 0.1 ml of corn oil 1 hour prior to administration of the insecticide. Eight mice were treated, per dosage, with each synergist. The mice were watched for a minimum of 6 hours while held in a glass jar with bedding individually after intraperitoneal injection of the test solutions. Lethality was noted, the animals were weighed and transferred in cages, and food and water were supplied. Control mice were given 0.1 ml of corn oil at the time of administration of the synergist to the test mice and 0.1 ml corn oil plus Dimetilan at the time of administration of the insecticide to the test mice.
By the same procedure, the synergism of acute toxicity of GS 13005, Secobarbital and 6-dimethylamino-4,4-diphenyl-3-heptanone [Methadone] was determined.

mice [3] = test: acute toxicity of Dimetilan alone and of synergist alone (intraperitoneal); assay type: in vivo, Swiss albino white male mice; conditions: synergist alone 1000 mg/kg ip, 72 hours, of eight mice
Protocol: To determine the acute toxicity of dimetilan alone, eight dosage levels of Dimetilan, ranging from 4 to 32 mg per kg wer applied to eight, Swiss, albino, white, male mice per dosage level. The mice weighed approximately 23 to 27 grams and were five to size weeks old. The Dimetilan was administered intraperitoneally in 0.1 ml of corn oil one hour after the administration of the same dose of corn oil alone.
To determine the acute toxicity of the synergist alone, various synergists were administered intraperitoneally at a dose of 1000 mg/kg to each of a group of eight mice. The number of animals dead at the end of 72 hours is reported in the left hand column of Table XXXXVI.

mice [4] = test: extension of Noludar sleeping time by synergists; assay type: in vivo, Swiss albino white male mice; conditions: Noludar 110 mg/K, synergist 110 mg/K; for Relative Sleeping Time: treated/control
Protocol: as §1, §2

[5] = tested on: polyvalent resistant (CH strain) houseflies; test: whole plant or invertebrate; assay type: in vivo, housefly (CH strain); conditions: Musca domestica, topical, 24 h
Protocol: The effect of O-(2-propynyl) oximes with Dimetilan and with GS 13798 was obtained from tests on polyvalent resistant (CH strain) houseflies that had been chilled and to the dorsal region of which was applied an acetone solution of synergist and insecticide at a ratio of two to one. Duplicate tests were performed using 10 four to five-day old female houseflies per test. After dosage, the flies were put in a plastic petri dish with cotton soaked in a sugar-water solution. These doses of insecticide used without synergist caused 10-40% mortality.
(§3) In Table IX, and in the tables following it, the doses of topically applied insecticides and of synergists unless otherwise noted are expressed as micrograms per fly (μg/fly).
The effect of compounds II-C, II-D and II-E with Dimetilan and GS 13798 was determined, following the procedure of Example 5, from tests on polyvalent resistant (CH strain) houseflies. These doses of insecticide used without synergist caused 10-40% mortality.
(§4) The synergistic effect with GS 13005 of compounds I-A, I-B, I-D, I-E, I-F, I-G and I-I was determined from topical application tests to IN/WHO strain, Rutgers A strain and polyvalent CH strain houseflies using the procedures of Example 5. The percent kills of the IN/WHO strain flies after 24 hours are shown in Table XXVIII; of the Rutgers A strain, in Table XXIX; and of the polyvalent CH strain, in Table XXX. The doses of insecticide alone to the CH strain files caused 10-40% mortality.
(§5) The synergistic effect with Diazinon and GS 13005 of various of the benzyl 2-propynyl ethers identified in Tables II and IIa was determined by topical application tests on IN/WHO strain, and Rutgers A strain and polyvalent, resistant, CH strain houseflies using the procedures of Example 5. The percent kills after 24 hours of IN/WHO strain flies are shown in Table XXXI; of Rutgers A strain flies, in Table XXXII; and of CH strain flies, in Table XXXIII. The doses of insecticide alone to the CH strain flies caused 10-40% mortality.
The synergistic effect with pyrethrum of various synergist compounds was determined by topical application tests on polyvalent, resistant CH strain houseflies following the procedure of Example 5. Application of the insecticide alone caused 10-40% mortality.

[6] = tested on: IN/WHO strain house flies; test: topical application test, percent kill after 24 hours, IN/WHO strain; assay type: in vivo, house fly (susceptible IN/WHO strain)
Protocol: as §3
The synergistic effect of O-(2-propynyl) oximes with mobam was determined from topical application tests on susceptible, female, IN/WHO strain house flies and from tests on resistant, female, Rutgers A strain house flies. The synergist and insecticide were dissolved in ACS Grade acetone in such quantities that a 1.0μ liter volume applied to the thorax of 3-to-5 day old CO2 -anesthetized female adult house flies contained the desired dosage. After being treated, the flies were confined, 10 to a plaster petri dish, with 3-5 dishes/treatment, and held for 24-hr. observation of mortality. Reconstituted skim milk on cotton dental wicks was provided during the holding period. The percent kills after 24 hours are shown in Table X for the IN/WHO strain and Table XI for the Rutgers A strain.
The synergistic effect of benzyl 2-propynyl ethers with mobam was determined from topical application tests on IN/WHO and Rutgers A strain houseflies, following the procedure of Example 5. The percent kills after 24 hours are shown in Table XIV for the IN/WHO strain and in Table XV for the Rutgers A strain.
The effects of varying the insecticide dose and the synergist-insecticide ratio are further illustrated, with synergist compounds II-D, II-E, II-F and Mobam insecticide, in Tables XVI, XVII and XVIII.
The synergistic effect on IN/WHO flies of synergist compound II-K with Dimetilan, pyrolan, Baygon and HRS 1422 is illustrated by the 24 hour percent mortality data in Tables XIX, XX and XXI.
The effect on IN/WHO flies of synergist compound IV-C, identified in Table IV, with mobam was determined by the topical application procedure of Example 5.
The synergistic effect with Diazinon of compounds I-B, I-D, I-F, I-G, I-H and I-I, identified in Tables I and Ia, was determined from topical application tests on IN/WHO strain houseflies and on Rutgers A strain houseflies by the procedure of Example 5. The percent kills after 24 hours are shown in Table XXV for the IN/WHO strain and Table XXVI for the Rutgers A strain.
as §4, §5
The synergist effect on IN/WHO flies of synergist compound II-K with Gardona and Bidrin is illustrated by the 24 hour percent mortality data in Tables XXXIV and XXXV.
The synergistic effect on IN/WHO strain flies and Rutgers A strain flies of compound IV-C with GS 13005 and with Diazinon was determined by the topical application procedure of Example 5. The percent kills of IN/WHO strain flies after 24 hours are shown in Tables XXXVI and XXXVII; the percent kills of Rutgers A strain flies are shown in Tables XXXVIII and XXXIX.

[7] = tested on: Wilson strain house flies; assay type: in vivo, house fly (susceptible Wilson strain); conditions: for Contact Synergistic Ratio, Carbaryl (LC50 insecticide alone / LC50 with synergist): in vivo; for Contact Synergistic Ratio, Pyrolan (LC50 insecticide alone / LC50 with synergist): synergist to insecticide 5:1 by weight, 24 h
Protocol: The required solutions of the insecticide and of the synergist compound were prepared in acetone at a concentration of one milligram per milliliter. One-pint wide mouth glass jars were coated wiith the appropriate insecticide-synergist combination by rolling the jars containing aliquots of the appropriate solutions diluted to three milliliters with acetone to deposit, by evaporation, a film of the test materials. The flies were transferred under carbon dioxide anesthesia and held in the jar at room temperature. Perforated aluminum foil was used to cover the jars and to hold cotton saturated with 10% sugar solution. Counts were made at intervals, but the recorded mortality was based on 24-hour kill, rather than knockdown. All prostrate nonmoving flies were considered dead. A determination was then made of the contact synergistic ratio [SR], which is the ratio of the LC50 of insecticide alone to the LC50 of the insecticide when applied together with the synergist. The LC50 of the insecticide was estimated from a log-probit plot of percent kill versus dosage. […] The LC50 of the combination of insecticide and synergist was determined at a synergist to insecticide parts by weight ratio of five to one.

[8] = Dimetilan 8 mg/kg + synergist 80 mg/kg ip
[9] = Dimetilan 8 mg/kg + synergist 240 mg/kg ip

Row | SMILES | Relative Sleeping Time (mice [1]; synergist 74 mg/K) | Relative Sleeping Time (mice [1]; synergist 110 mg/K) | number of mice dead (mice [2]; [9]) | Relative Sleeping Time (mice [4]) | Contact Synergistic Ratio, Carbaryl (LC50 insecticide alone / LC50 with synergist) [7] | Contact Synergistic Ratio, Pyrolan (LC50 insecticide alone / LC50 with synergist) [7] | Mean Sleeping Time (mice [4]) [min] | Mean Sleeping Time (mice [1]; synergist 110 mg/K) [min] | other results
1 | CCOCCOCCOC(C)Oc1ccc2c(c1)OCO2 (stereo not shown) [Sesoxane, reference compound] | 6.1 | 8.3 | 8 | 3.1 |  |  |  |  | number of mice dead (mice [2]; [8]): 8; mice lethality (number dead) (mice [2]; GS 13005 71 mg/kg + synergist 213 mg/kg): 0; mice lethality (number dead) (mice [2]; Methadone 32 mg/kg + synergist 215 mg/kg): 5; mice lethality (number dead) (mice [2]; Secobarbital 90 mg/kg + synergist 215 mg/kg): 6; number of mice dead (mice [3]): 1
2 | CCOP(=S)(OCC)Oc1cc(C)nc(C(C)C)n1 [Diazinon, O,O-diethyl O-(2-isopropyl-4-methyl-6-pyrimidyl) phosphorothioate, reference compound] |  |  |  |  |  |  |  |  | mortality at 5 µg/fly ([5]; read-out: mortality, insecticide alone): 10 to 40%; percent kill after 24 hours ([6]; Diazinon alone 0.03 μg/fly, 1440 min): 5%
3 | Cc1cc(OC(=O)N(C)C)n(-c2ccccc2)n1 [Pyrolan, 3-methyl-1-phenyl-5-pyrazolyl-N-dimethylcarbamate, reference compound] |  |  |  |  |  |  |  |  | LC50 of insecticide alone ([7]; insecticide alone, 24-hour kill): 0.15 mg/jar; 24 hour percent mortality ([6]; Pyrolan alone 0.63 μg/fly): 0%; 24 hour percent mortality ([6]; Pyrolan alone 1.3 μg/fly): 3%; 24 hour percent mortality ([6]; Pyrolan alone 2.5 μg/fly): 10%; 24 hour percent mortality ([6]; Pyrolan alone 5.0 μg/fly): 43%
4 | CNC(=O)Oc1cccc2ccc(C)nc12 [GS 13798, 8-(2-methylquinolyl)-N-methylcarbamate, reference compound] |  |  |  |  |  |  |  |  | mortality at 1 µg/fly ([5]; read-out: mortality, insecticide used without synergist): 10 to 40%
5 | C#CCOC(c1ccc(Cl)cc1Cl)C(C)[N+](=O)[O-] (stereo not shown) [IV-A, 2-propynyl 1-(2,4-dichlorophenyl)-2-nitropropyl ether] | 2.3 |  | 7 | 2.7 | 134 | 10 | 78 |  | Mean Sleeping Time (mice [1]; synergist 74 mg/K): 56 min; number of mice dead (mice [2]; [8]): 4
6 | C#CCn1ncc2cc([N+](=O)[O-])ccc21 [III-A] |  | 1.1 | 0 | 1.0 | 143 | 30 | 32 | 50 | 
7 | C#CCON=Cc1ccc(N(C)C)cc1 [I-C] | 1.1 | 1.8 | 0 | 1.0 | 200 | 20 | 34 | 108 | Mean Sleeping Time (mice [1]; synergist 74 mg/K): 30 min
8 | C#CCOCc1cc(Cl)c(Cl)cc1Cl [II-F] |  | 1.0 | 0 | 1.3 | 150 | 15 | 38 | 46 | percent mortality 24 hours ([6]; Mobam 0.13 μg/fly, synergist/insecticide 5/1): 23%
